Test results: US20080227635A1, “Dicyano Alkanoic Acid Amides for Combating Animal Pests” (BASF Aktiengesellschaft, priority 2005, published 2008)

How the values were obtained:
Assay type in all cases: in vivo
[1] = test system: Boll weevil (Anthonomus grandis); experiment: Activity against Boll weevil (eggs sprayed in microtiterplates); settings: 2500 ppm solution in 1:3 DMSO:water, eggs sprayed with 20 μl, 3 to 5 days, untreated controls 0%
Method: 1. Activity against Boll weevil (Anthonomus grandis)
The active compounds were formulated as a 2500 ppm solution in 1:3 DMSO:water. 10 to 15 eggs were placed into microtiterplates filled with 2% agar-agar in water and 300 ppm formaline. The eggs were sprayed with 20 μl of the test solution, the plates were sealed with pierced foils and kept at 24-26° C. and 75-85% humidity with a day/night cycle for 3 to 5 days. Mortality was assessed on the basis of the remaining unhatched eggs or larvae on the agar surface and/or quantity and depth of the digging channels caused by the hatched larvae. Tests were replicated 2 times.

[2] = test system: Vetch aphid (Megoura viciae); experiment: Activity against Vetch aphid (sprayed bean leaf disks); settings: foliar, 144 h, 2500 ppm solution in 1:3 DMSO:water, leaf disks sprayed with 2.5 μl, adult aphids, 6 days, untreated controls 0%
Method: 4. Activity against Vetch aphid (Megoura viciae)
The active compounds were formulated as a 2500 ppm solution in 1:3 DMSO:water. Bean leaf disks were placed into microtiterplates filled with 0.8% agar-agar and 2.5 ppm OPUS™. The leaf disks were sprayed with 2.5 μl of the test solution and 5 to 8 adult aphids were placed into the microtiterplates which were then closed and kept at 22-24° C. and 35-45% under fluorescent light for 6 days. Mortality was assessed on the basis of vital, reproduced aphids. Tests were replicated 2 times.

[3] = test system: yellowfever mosquito (Aedes aegyptii); experiment: Activity via glass contact (treated glass vials); settings: 10 ppm in acetone, 0.5 ml per glass vial, 22° C., untreated controls 0%
Text: 9. Activity against Argentine ant (Linepithema humile), harvester ant (Pogonomyrmex californicus), acrobat ant (Crematogaster spp.), carpenter ant (Camponotus floridanus), fire ant (Solenopsis invicta), house fly (Musca domestica), stable fly (Stomoxys calcitrans), flesh fly (Sarcophaga sp.), yellowfever mosquito (Aedes aegyptii), house mosquito (Culex quinquefasciatus), malaria mosquito (Anopheles albimanus), German cockroach (Blattella Germanica), cat flea (Ctenocephalides felis), and brown dog tick (Rhipicephalus sanguineus) via glass contact
Glass vials were treated with 0.5 ml of a solution of 10 ppm of the active ingredient in acetone and allowed to dry. Insects or ticks were placed into each vial together with some food and moisture supply.

| SMILES | mortality at 2500 ppm [1] [%] | mortality at 2500 ppm [2] [%] | mortality at 10 ppm [3] [%] |
| --- | --- | --- | --- |
| CN(C(=O)CC(C#N)(C#N)CCC(F)(F)F)C(C)(C)C [I-1, 3,3-dicyano-6,6,6-trifluoro-hexanoic acid tert-butyl-methyl-amide] | > 75 | > 75 | – |
| CN(C(=O)CC(C#N)(C#N)CCC(F)(F)F)C(C)(C)C#N [I-2, 3,3-dicyano-6,6,6-trifluoro-hexanoic acid (cyano-dimethyl-methyl)-methyl-amide] | – | – | > 75 |
